# Values quoted from earlier work as cited in patent US20030116748A1, “Environmentally friendly compositions having anti-icing, deicing or graffiti prevention properties” (priority 1995, published 2003).
# Read-outs that look alike come from different tables or passages of the source.
# Columns and labels:
# [1] = for OSHA PEL: 8 hour time-weighted average
# [2] = individual component at full concentration
structure (smiles),measurement,setting,value
"CC(C)O [Example 2-Propanol, 2-Propanol]",OSHA PEL,[1],400 ppm
same,OSHA PEL,[1]; value in brackets,980 mg/m^3
same,NIOSH,[1]; 10 hour time-weighted average,400 ppm
same,NIOSH (STEL),[1]; Short Term Exposure Limit,500 ppm
same,ACGIH TLV,[1]; time-weighted average,400 ppm
same,Solubility in Water,[2],miscible
"OCC(O)CO [Glycerin, 1,2,3-Propanetriol]",Solubility in Water,[2],miscible
"CC(O)CO (centres unmarked) [Propylene Glycol, 1,2-propanediol]","Permissible concentration limits, Air",Federal,156 (Federal) mg/m^3
OCCO [Ethylene Glycol],"Permissible concentration limits, Water","Arizona, Massachusetts, Maine","5.50 (Arizona, mg/L"
same,"Permissible concentration limits, Water",Connecticut,0.10 (Connecticut) mg/L
same,"Permissible concentration limits, Air",Federal,125 (Federal) mg/m^3
same,"Permissible concentration limits, Air",Massachusetts,0.17 mg/m^3
same,"Permissible concentration limits, Air",Nevada,2.98 (Nevada) mg/m^3
same,"Permissible concentration limits, Water",New Jersey,0.29 (New Jersey) mg/L
same,"Permissible concentration limits, Air",North Dakota,1.25 (North mg/m^3
same,"Permissible concentration limits, Water",U.S. EPA,0.14 (U.S. EPA) mg/L
same,"Permissible concentration limits, Air",Virginia,1.00 (Virginia) mg/m^3
